# Settings: not given
SMILES,melting point [°C],boiling point [°C],log10 vapour pressure (mmHg),log10 Henry constant (atm·m³/mol),ready biodegradability,log10 Koc (L/kg),log10 biodegradation half-life (days)
N=C(NCCCCCCNC(=N)NC(=N)Nc1ccc(Cl)cc1)NC(=N)Nc1ccc(Cl)cc1,134,–,–,–,–,–,–
CN1Cc2c(N)cccc2C(c2ccccc2)C1 (centres undefined),180,–,–,–,–,–,–
O=C(CI)c1ccccc1,34.4,–,–,–,–,–,–
CCCCOC(=O)/C=C\C(=O)OCCCC,-85,281,-3.21,–,–,–,–
Cc1ccc(O)c([N+](=O)[O-])c1,36.5,–,–,-4.83,not readily biodegradable,–,–
Nc1ncnc(Nc2ccc(Cl)cc2)n1,234,–,–,–,–,–,–
CCCCCC1=CCCC1,-83,179,–,–,–,–,–
C/C=C/Cl,-117,35.2,2.71,–,–,–,–
C(=NC1CCCCC1)=NC1CCCCC1,34.5,–,–,–,not readily biodegradable,–,–
Cc1cc(C)cc(NC(=O)N(C)C)c1,–,–,–,–,–,1.73,–
CC(=O)NCCS,6.5,–,–,–,–,–,–
CSc1nnc(C(C)(C)C)c(=O)n1N,126,–,-6.36,–,–,1.71,–
CC(C)COC(=O)CCCCC(=O)OCC(C)C,-20,279,–,–,–,–,–
CC=CC#N,–,120,1.5,–,–,–,–
O=[N+]([O-])Cc1ccccc1,–,226,–,–,–,–,–
CCCSC,-113,95.6,1.71,–,–,–,–
CCc1c(C)c[nH]c1C,0,199,–,–,–,–,–
CCOc1cccc(C=O)c1,–,246,–,–,–,–,–
CCCOC(N)=O,60,196,-1.26,–,–,–,–
Nc1ccccc1Br,32,229,–,–,–,–,–
Cc1ccc(CCl)cc1,–,201,-0.527,–,–,–,–
Brc1ccc(-c2ccc(Br)cc2)cc1,164,358,–,–,not readily biodegradable,–,–
O=C(CCCN1CCC(n2c(=S)[nH]c3ccccc32)CC1)c1ccc(F)cc1,202,–,–,–,–,–,–
Cc1cc(Br)ccc1N,59.5,240,–,–,–,–,–
CNC(=O)Oc1cc(C)cc(C)c1,99,–,-3.44,–,not readily biodegradable,1.71,–

SMILES,melting point [°C],boiling point [°C],log10 vapour pressure (mmHg),log10 Henry constant (atm·m³/mol),ready biodegradability,log10 Koc (L/kg),log10 biodegradation half-life (days)
Cc1cccc(C)c1C,-25.4,176,0.228,-2.36,not readily biodegradable,2.8,0.602
CCCc1cccc(O)c1,26,228,–,–,–,–,–
CC(=O)OCC(C)OC(C)=O (centres undefined),–,190,–,–,–,–,–
C[C@]12C[C@H]3S[C@H]3C[C@@H]1CC[C@@H]1[C@@H]2CC[C@]2(C)[C@@H](O)CC[C@@H]12,127,–,–,–,–,–,–
c1ccc(N=Nc2ccccc2)cc1,68.2,293,-3.44,–,not readily biodegradable,3.3,–
CC(=O)OC(C)=O,-73,140,0.708,–,–,–,–
CCOC(=O)C(C)Oc1ccc(Oc2nc3ccc(Cl)cc3o2)cc1 (centres undefined),86.2,–,–,–,–,3.98,–
CC(C)(I)I,–,173,–,–,–,–,–
CCC#CCCCCC,–,157,–,–,–,–,–
COS(=O)(=O)c1ccc(C)cc1,28.5,292,–,–,–,–,–
CC(C)c1ccccc1N,–,221,–,–,–,–,–
OCc1ccccc1C(c1ccc(O)cc1)c1ccc(O)cc1,202,–,–,–,–,–,–
O=[N+]([O-])C(CO)(CO)CO,214,–,–,–,readily biodegradable,–,–
O=c1oc2cc(O)ccc2s1,160,–,–,–,–,–,–
COC(=O)C1CC1,–,115,–,–,–,–,–
CCCCCC(=O)O[C@]1(C(C)=O)CC[C@H]2[C@@H]3CCC4=CC(=O)CC[C@@H]4[C@H]3CC[C@@]21C,124,–,–,–,–,–,–
COc1cc(C(C)=O)ccc1O,115,297,–,–,–,–,–
CCOC(=O)C1CC=CCC1 (centres undefined),–,194,–,–,–,–,–
COc1c(Cl)ccc(Cl)c1C(=O)O,115,–,-4.47,–,–,1.5,–
C=C1CC2CC1CC2(C)C (centres undefined),–,152,–,–,–,–,–
FC(I)I,-34.5,100,–,–,–,–,–
CC(C)=CCCC(C)CC(=O)O (centres undefined),257,–,–,–,–,–,–
Cc1ccc(CBr)cc1,35,220,–,–,–,–,–
O=C(O)c1cc(C(=O)O)c(C(=O)O)cc1C(=O)O,276,–,–,–,–,–,–
Cc1ccc2nc(C)[nH]c2c1,203,350,–,–,–,–,–

SMILES,melting point [°C],boiling point [°C],log10 vapour pressure (mmHg),log10 Henry constant (atm·m³/mol),ready biodegradability,log10 Koc (L/kg),log10 biodegradation half-life (days)
CC(C)(C#N)N=NC(C)(C)C#N,–,–,–,–,not readily biodegradable,–,–
CCOC(=O)CC(=O)c1ccc([N+](=O)[O-])cc1,72,–,–,–,–,–,–
C=C1C(=O)O[C@@H]2[C@H]1CC[C@H](C)[C@]1(O)C=CC(=O)[C@@]21C,164,–,–,–,–,–,–
CCCCCC(O)CCCCC,25,228,–,–,–,–,–
C#C[C@]1(O)CC[C@H]2[C@@H]3CCC4=C(CCC(=O)C4)[C@H]3CC[C@@]21C,170,–,–,–,–,–,–
CCCCCCCC[C@H](O)[C@H](O)CCCCCCCC(=O)O,90,–,–,–,–,–,–
CC(C)(C)c1cc(-c2ccccc2)cc(C(C)(C)C)c1O,–,–,–,–,not readily biodegradable,–,–
CN(C)c1ccc(C=Cc2ccccc2)cc1,150,–,–,–,–,–,–
CCOc1ccccc1F,-16.7,171,–,–,–,–,–
CCCCCCCCCCCCCCCCC(CCC)c1ccccc1 (centres undefined),31.4,–,–,–,–,–,–
NS(=O)(=O)c1ccc(SCCCCO)s1,48.5,–,–,–,–,–,–
c1cc2c3c(c1)ccc1ccc4cccc-2c4c13,–,–,–,–,–,–,2.54
C=C(Br)CBr,–,141,0.88,–,–,–,–
C=CC1=CCCCC1,–,145,–,–,–,–,–
O=S(=O)(O)CS(=O)(=O)O,98,–,–,–,–,–,–
OC[C@@H](O)[C@H](O)[C@@H](O)CO,98.8,–,–,–,readily biodegradable,–,–
ON=Cc1ccccc1O,57,–,–,–,–,–,–
COc1cc(Cc2cnc(N)nc2N)cc(OC)c1Br,226,–,–,–,–,–,–
O=C(O)CCCCc1ccccc1,57.5,–,–,–,–,–,–
C#CC(C)Cl (centres undefined),–,68.5,–,–,–,–,–
C=C(C)F,–,-24,–,–,–,–,–
Cc1ccc([N+](=O)[O-])cc1Cl,66.5,260,–,–,not readily biodegradable,–,–
CC(C)CCCC(C)N (centres undefined),–,155,–,–,–,–,–
Cc1ccc(O)c(N)c1,136,–,–,–,–,–,–
CCCCCCC(C)CCC (centres undefined),-77.5,187,–,–,–,–,–

SMILES,melting point [°C],boiling point [°C],log10 vapour pressure (mmHg),log10 Henry constant (atm·m³/mol),ready biodegradability,log10 Koc (L/kg),log10 biodegradation half-life (days)
CCC(=O)Nc1ccc(Cl)c(Cl)c1,92,351,-6.04,–,readily biodegradable,2.17,–
CC1=CCCCCC1,–,136,–,–,–,–,–
CC(C)CCC[C@@H](C)[C@H]1CC[C@H]2[C@@H]3CC[C@@H]4C[C@H](O)CC[C@]4(C)[C@H]3CC[C@]12C,143,–,–,–,–,–,–
C=C(C)CC(C)(C)C,-93.5,101,1.65,–,–,–,–
COC(=O)c1cc(C(=O)OC)c(C(=O)OC)cc1C(=O)OC,144,–,–,–,–,–,–
O=S(=O)(O)c1ccc2ccccc2c1,91,–,–,–,–,–,–
ClC(Cl)c1ccccc1,-17,205,-0.328,–,readily biodegradable,–,–
O=Cc1ccoc1,–,145,–,–,–,–,–
CCC(C)CC(C)(C)C (centres undefined),-120,126,1.2,–,–,–,–
COC(=O)c1cccc(C)c1O,29,235,–,–,–,–,–
CC(CCl)CBr (centres undefined),–,155,–,–,–,–,–
CC(C)CCOC(=O)C(C)C,–,168,–,–,–,–,–
CC1(C)CC[C@]2(C(=O)O)CC[C@]3(C)C(=CC[C@@H]4[C@@]5(C)CC[C@H](O)[C@@](C)(C=O)[C@@H]5CC[C@]43C)[C@@H]2C1,275,–,–,–,–,–,–
Clc1ccc(-c2c(Cl)c(Cl)cc(Cl)c2Cl)c(Cl)c1,–,–,–,-4.29,–,–,–
COCCOc1c(OC)cc(Cc2cnc(N)nc2N)cc1OC,154,–,–,–,–,–,–
N#CCCl,–,126,1.18,–,–,–,–
C[SiH]1O[SiH](C)O[SiH](C)O[SiH](C)O1 (centres undefined),-65,134,–,–,–,–,–
CCCCC(CC)COC(=O)COc1cc(Cl)c(Cl)cc1Cl (centres undefined),–,–,-5.92,–,–,–,–
Nc1cccc([N+](=O)[O-])c1,114,306,-4.02,-8.1,not readily biodegradable,1.73,–
N#CCc1ccc([N+](=O)[O-])cc1,117,–,–,–,–,–,–
CCCCOCCOCCOCCCC,-60,256,-1.58,–,–,–,–
Cc1ccccc1S(N)(=O)=O,–,–,–,–,not readily biodegradable,–,–
COc1ccc(N)cc1,57.2,243,-1.52,-7.18,readily biodegradable,1.93,–

# Same assay, conditions: fish
SMILES,log10 BCF,log10 biotransformation half-life (days)
Cc1ccc(O)c([N+](=O)[O-])c1,0.95,–
Brc1ccc(-c2ccc(Br)cc2)cc1,3.92,1.57
CNC(=O)Oc1cc(C)cc(C)c1,0.4,–
Cc1cccc(C)c1C,2.29,-0.22
CC(C)(C)c1cc(-c2ccccc2)cc(C(C)(C)C)c1O,3.78,1.16
Brc1cc(Br)c(Oc2ccc(Br)c(Br)c2)c(Br)c1,6.29,–
CCC(=O)Nc1ccc(Cl)c(Cl)c1,1.84,–
C=C(C)CC(C)(C)C,2.78,0.12
Nc1cccc([N+](=O)[O-])c1,0.48,-0.77
Cc1ccccc1S(N)(=O)=O,0.41,-0.89

# Source: the OPERA property sets (Mansouri et al. 2018)
